From patent US12343321B1, “Method for ameliorating or avoiding the adverse effects of exogenous gonadotropins on reproductive performance” (CHINA AGRICULTURAL UNIVERSITY, priority 2024, dated 2025)
Entries after “also recorded” stand apart in the source; their conditions may differ. Marks after values point to notes of the source that are not given here.

Experiments:
pERK = test: Molecular detection of pERK in mouse endometrium after eCG/hCG treatment; format: in vivo; details: day 4 after vaginal plug, NAC 200 mg/kg BW i.p. daily, BGJ398 100 μM, 5 μL via uterine horn, or NAC 100 + VA 100 mg/kg BW
Text: (§1) 2.2 Molecular Regulation Effect of N-Acetylcysteine in Combination with Vitamin A on Alleviating Uterine Receptivity Decrease Induced by Gonadotropin Treatments
(§2) In the animal experiment, ICR female mice (SPF grade, 8 weeks old, 28-30 g) were selected and randomized into groups of 10-18, including normal control group (CON), superovulation stimulation group (eCG/hCG), superovulation stimulation and BGJ398 group (eCG/hCG+BGJ398), superovulation stimulation and NAC single administration group (eCG/hCG+NAC), superovulation stimulation and VA single administration group (eCG/hCG+VA), superovulation stimulation and NAC and VA combined administration group (eCG/hCG+NAC+VA). The temperature of the breeding environment was 22° C., 12-h light/dark cycle was performed, and the mice were provided with free access to water and food. After the animals were purchased, they were acclimated for 5-7 days.
(§3) Control group (CON): A female 8-week-old ICR mouse was taken as the research object, subjected to natural estrus, mated with a vasoligated male mouse, and was taken as the control group. The uterus of the mouse was then separated on day 4 after the vaginal plug was observed, namely, when the uterine receptivity was established, and the detection of a plurality of signal molecules was carried out. […]

[1] = test system: ICR female mice treated with eCG/hCG; test: Embryo implantation sites after embryo transfer in gonadotropin-treated mice; format: in vivo, mouse; details: for number of implantation sites compared with control group (exogenous gonadotropin only): 12 embryos transferred on day 4, counted on day 5 of pregnancy, drugs 200 mg/kg BW total i.p. daily, BGJ398 100 μM via uterine horn; for effect on implantation and live birth, alone or in synergy with NAC/VA: 200 mg/kg BW alone, or 100 + 100 mg/kg BW with NAC/VA
Text: as §2
Superovulation stimulation and BGJ398 group (eCG/hCG+BGJ398): Female 8-week-old ICR mice were taken as the research object and injected with 10 IU eCG and […] to induce superovulation, respectively. On day 3 of pregnancy, the mice were injected with 5 μL of FGF receptor inhibitor containing 100 μM BGJ398 inhibitor through the uterine horn. Embryo transfer was then performed on day 4 after the vaginal plug was observed.
(§4) Superovulation stimulation and NAC single administration group (eCG/hCG+NAC): A female 8-week-old ICR mouse was taken as the research object. On the basis of the treatment of the superovulation stimulation group (eCG/hCG), each mouse was intraperitoneally injected with NAC at a dose of 200 mg/kg BW daily 5 days prior to the injection of eCG. Embryo transfer was then performed on day 4 after the vaginal plug was observed. The injection was continued until day 10 of pregnancy.
as §4, with “VA” for “NAC”, “(eCG/hCG+VA):” for “(eCG/hCG+NAC):”, “eCG/hCG.” for “eCG.”
as §4, with “and VA combined” for “single”, “(eCG/hCG+NAC+VA):” for “(eCG/hCG+NAC):”, “with a mixture of” for “with”, “100 mg/kg BW and VA at a dose of 100” for “200”
The mice in the CON group, eCG/hCG group, eCG/hCG+BGJ398 group, eCG/hCG+NAC group, eCG/hCG+VA group, and eCG/hCG+NAC+VA group were separately in the same cage and mated with a vasoligated male mouse. The vaginal plug was checked at about 8 am in the next morning. The pseudopregnant female mouse whose vaginal plug was observed was ready for transfer. The day when the vaginal plug was observed was taken as day 1, and day 4 was the date of blastocyst transfer. […]
Embryo transfer was separately performed on the mice in the CON group, eCG/hCG group, eCG/hCG+BGJ398 group, eCG/hCG+NAC group, eCG/hCG+VA group, and eCG/hCG+NAC+VA group on day 4 of pregnancy; embryo implantation sites were counted by orbital injection of Chicago blue on day 5 of pregnancy. […]

[2] = test system: ICR female mice treated with eCG/hCG; test: Live birth after embryo transfer in gonadotropin-treated mice; format: in vivo; details: for live births compared with control group (exogenous gonadotropin only): 12 embryos transferred on day 4, counted on day of delivery, drugs 200 mg/kg BW total i.p. daily
Experimental: Superovulation stimulation and BGJ398 group (eCG/hCG+BGJ398): Female 8-week-old ICR mice were taken as the research object and injected with 10 IU eCG and PMSG to induce superovulation, respectively. On day 3 of pregnancy, the mice were injected with 5 μL of FGF receptor inhibitor containing 100 μM BGJ398 inhibitor through the uterine horn. Embryo transfer was then performed on day 4 after the vaginal plug was observed.
Superovulation stimulation and VA single administration group (eCG/hCG+VA): A female 8-week-old ICR mouse was taken as the research object. On the basis of the treatment of the superovulation stimulation group (eCG/hCG), each mouse was intraperitoneally injected with VA at a dose of 200 mg/kg BW daily 5 days prior to the injection of eCG/hCG. Embryo transfer was then performed on day 4 after the vaginal plug was observed. The injection was continued until day 10 of pregnancy.
Superovulation stimulation and NAC and VA combined administration group (eCG/hCG+NAC+VA): A female 8-week-old ICR mouse was taken as the research object. On the basis of the treatment of the superovulation stimulation group (eCG/hCG), each mouse was intraperitoneally injected with a mixture of NAC at a dose of 100 mg/kg BW and VA at a dose of 100 mg/kg BW daily 5 days prior to the injection of eCG. Embryo transfer was then performed on day 4 after the vaginal plug was observed. The injection was continued until day 10 of pregnancy.
Embryo transfer was separately performed on the mice in the CON group, eCG/hCG group, eCG/hCG+BGJ398 group, eCG/hCG+NAC group, eCG/hCG+VA group, and eCG/hCG+NAC+VA group on day 4 of pregnancy, and the mice were then placed in the animal house for normal feeding. On the day of delivery, the number born alive index was counted. […]

Gilts = test: Reproductive performance of gilts in batch farrowing with FTAI (pregnancy rate, farrowing rate); format: in vivo, pig; details: for Estrus detection rate (%) / Farrowing rate (%) / Pregnancy Rate (%): batch farrowing with FTAI (eCG/GnRH), drugs in feed, 200 mg/kg BW total daily; for female pig farrowing rate compared with batch farrowing with FTAI (control group) / female pig pregnancy rate compared with batch farrowing with FTAI (control group): eCG/GnRH, result in words
Text: Gilts with the weight of 120-140 kg and the age of 200-250 days were selected for the experiment, which were divided into the batch farrowing with FTAI (CON) group, batch farrowing supplemented with NAC (NAC) group, batch farrowing supplemented with VA (VA) group, batch farrowing with combined administration of NAC and VA (NAC+VA 1:1) group, batch farrowing with combined administration of NAC and VA (NAC+VA […]) group, and batch farrowing with combined administration of NAC and VA (NAC+VA 9:1) group. Each group had 48-55 gilts.
The technical process of batch farrowing of the gilts in the CON group (namely the batch farrowing with FTAI scheme) was as follows: 1) estrus synchronization treatment: the gilt orally taken altrenogest for 18 days; 2) after an interval of 42 h after the estrus synchronization treatment, exogenous gonadotropin eCG was injected to induce follicular development synchronization; 3) after an interval of 80 h after eCG injection, an ovulatio induction drugs (GnRH) was injected. After an interval of 24 h after the injection, a first mating was carried out, and then after an interval of 16 h, a second mating was carried out. Pregnancy examination was then performed and the gilts were fed normally until delivery.
On the basis of the technical process of batch farrowing of the gilts in the CON group, in the NAC group, VA group, and NAC+VA group, NAC at a dose of 200 mg/kg BW, VA at a dose of 200 mg/kg BW, combined addition of NAC (100 mg/kg BW) and VA (100 mg/kg BW), combined addition of NAC (20 mg/kg BW) and VA (180 mg/kg BW), and combined addition of NAC (180 mg/kg BW) and VA (20 mg/kg BW) were separately added into the feed daily 14 days prior to the eCG injection until the end of first pregnancy examination (day 30-32 of pregnancy). The gilts were then fed normally until delivery.
The pregnancy rate of the female pigs was counted through pregnancy examination; the farrowing rate of the female pigs was counted during delivery. The pregnancy rate and the farrowing rate of female pigs from different treatment groups were calculated as follows: Female pig pregnancy rate=pregnant female pig count/mated female pig count×100% Female pig farrowing rate=delivery female pig count/mated female pig count×100%

ERα = test: Molecular detection of ERα in mouse endometrium after eCG/hCG treatment; format: in vivo; details: day 4 after vaginal plug, VA 200 mg/kg BW i.p. daily alone, or NAC 100 + VA 100 mg/kg BW
Text: as §1, §2, §3

| Structure (SMILES) | excessive phosphorylation of pERK (exogenous gonadotropin-induced pERK overexpression) (pERK) | number of implantation sites compared with control group (exogenous gonadotropin only) [1] | toxicity to fetal development after implantation ([2]; BGJ398 100 μM, 5 μL via uterine horn on day 3) | effect on implantation and live birth, alone or in synergy with NAC/VA [1] | Estrus detection rate (%) (Gilts) | Farrowing rate (%) (Gilts) | Pregnancy Rate (%) (Gilts) | female pig farrowing rate compared with batch farrowing with FTAI (control group) (Gilts) | female pig pregnancy rate compared with batch farrowing with FTAI (control group) (Gilts) | live births compared with control group (exogenous gonadotropin only) [2] | expression of ERα (exogenous gonadotropin-induced ERα overexpression) (ERα) |
| --- | --- | --- | --- | --- | --- | --- | --- | --- | --- | --- | --- |
| CCN1CCN(c2ccc(Nc3cc(N(C)C(=O)Nc4c(Cl)c(OC)cc(OC)c4Cl)ncn3)cc2)CC1 [BGJ398] | significantly inhibit | significantly higher; also recorded: significantly increase | highly toxic; also recorded: negatively affect fetal development; also recorded: fetus regressed |  |  |  |  |  |  |  |  |
| COc1ccc2[nH]cc(CCNC(C)=O)c2c1 [MT, melatonin] |  |  |  | do not work well |  |  |  |  |  |  |  |
| CC(=O)N[C@@H](CS)C(=O)O [NAC, N-acetyl-L-cysteine] | significantly inhibit | increased to some extent |  |  | 88.89% | 81.48^b % | 85.19^b % | significantly improve | significantly improve | increased to some extent |  |
| CC1=C(/C=C/C(C)=C/C=C/C(C)=C/CO)C(C)(C)CCC1 [VA, vitamin A] |  | increased to some extent |  |  | 93.75% | 83.33^b % | 89.58^b % | significantly improve | significantly improve | increased to some extent | significantly inhibits |
| O=C1O[C@H]([C@@H](O)CO)C(O)=C1O [VC, vitamin C] |  |  |  | do not work well |  |  |  |  |  |  |  |
